Experimental data from US20250171516A1, “PEPTIDE ACIDS AS A GLP1R AGONIST AND ANTIBODY-DRUG CONJUGATES THEREOF” (Regeneron Pharmaceuticals, Inc., priority 2023, published 2025).
Values joined by “and” are separate entries in the source; they are usually repeats but may differ in a detail not shown here. Equal values may be shown once.

Experiments:
GLP-1R [1] = target: T1, GLP-1R (Homo sapiens, UniProt P43220); experiment: CRE-Luc cAMP responsive luciferase reporter assay in HEK293/CRE-Luc/hGLP1R cells; type: cell-based; design: engineered to express full-length human GLP1R (GenBank: AAI12127.1) (HEK293/CRE-Luc/hGLP1R); expressed in transfected cells; host or cells: HEK293/CRE-Luc (HEK293/FSC11/pCDNA3.1 + GLP1R, ACL6822); conditions: for Emax: HEK293, read-out: Emax (% GLP-1), CRE-dependent reporter activity, HEK293/CRE-Luc/hGLP1R
T1 sequence (P43220 24-463): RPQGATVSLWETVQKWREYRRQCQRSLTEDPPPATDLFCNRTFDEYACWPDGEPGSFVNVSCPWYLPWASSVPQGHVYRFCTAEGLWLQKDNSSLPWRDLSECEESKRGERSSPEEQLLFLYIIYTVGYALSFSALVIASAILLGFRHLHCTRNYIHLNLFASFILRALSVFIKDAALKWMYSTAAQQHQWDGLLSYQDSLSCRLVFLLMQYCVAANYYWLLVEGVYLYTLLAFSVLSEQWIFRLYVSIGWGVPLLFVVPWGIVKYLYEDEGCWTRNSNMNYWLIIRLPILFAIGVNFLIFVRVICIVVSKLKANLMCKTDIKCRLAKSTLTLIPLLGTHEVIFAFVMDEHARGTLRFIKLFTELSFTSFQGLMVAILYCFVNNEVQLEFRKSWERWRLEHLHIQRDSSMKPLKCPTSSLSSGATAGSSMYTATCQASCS
Text: To test the activity of GLP1R agonist linker-payloads (LPs) and anti-GLP1R antibody-tethered ligands (ATLs) of the invention, a cell-based cAMP responsive luciferase reporter assay was developed. To generate the assay cell line, the firefly luciferase gene was placed under the control of four copies of a cAMP response element (4×CRE) located upstream of a minimal promoter and transfected into HEK293 cells and referred to herein as HEK293/CRE-Luc cells. HEK293/CRE-Luc cells were then engineered to express full-length human GLP1R (GenBank: AAI12127.1) (HEK293/CRE-Luc/hGLP1R).
(§1) For all assays, cells were seeded into 384-well plates (Falcon #353988) at 6,000 cells/well in assay media (Opti-MEM, 1% FBS, 1×Penicillin-Streptomycin) and incubated overnight at 37° C. Serial dilutions of the anti-GLP1R ATLs and non-binding control ATLs were performed in assay media. Serial dilutions of linker-payloads (LPs) were performed in 100% DMSO (ATCC, #4-X-5), followed by 1:100 dilution in assay media. Test articles were added to cells (1:5 dilution) using VIAFLO 384 (Integra) with the last well in each serial dilution series serving as a blank control containing only assay media for ATLs or assay media with 0.2% DMSO for LPs. The blank was plotted as a continuation of the serial dilution.
For the CRE-Luc assay, after a 5-hours incubation at 37° C., luciferase activity was determined by addition of ONE-Glo reagent (Promega, #E6130) followed by measurement of relative light units (RLUs) on EnVision Plate Reader (Perkin Elmer).
(§2) EC50 values for luminescence assays were determined using a four-parameter logistic equation over a 12-point dose response curve (GraphPad Prism).

GLP-1R [2] = target: T1, GLP-1R; experiment: GLP-1R cAMP assay of peptides (Tables 10, 14, 15); type: cell-based
GLP-1R [3] = target: T1, GLP-1R; experiment: b-arrestin 2 recruitment enzyme fragment complementation assay in HEK293/b-arrestin2/hGLP1R cells; type: cell-based; design: The full-length human GLP1R (NP_002053.3) with a C-terminus fusion to a small b-gal fragment called enzyme donor or ProLink (PK); host or cells: HEK293/b-arrestin2-EA (HEK293/Barrestin clone 2C6/hGLP1R-Prolink1 high sorted, ACL21687)
Text: To test the recruitment of b-arrestin 1 and b-arrestin 2 to GLP1R upon receptor activation, two enzyme fragment complementation assays were developed. To generate the assay cell lines, b-arrestin 1 fused to the b-galactosidase (b-gal) reporter fragment called enzyme acceptor (EA) (i.e., b-arrestin1-EA) or b-arrestin 2 fused to the b-gal reporter fragment EA (i.e., b-arrestin2-EA) were transduced into HEK293 cells using PathHunter b-Arrestinl Retroparticles (DiscoverX, #83-OT-TB-N-01) or PathHunter b-Arrestin2 Retroparticles (DiscoverX, #93-1087), respectively. The full-length human GLP1R (NP_002053.3) with a C-terminus fusion to a small b-gal fragment called enzyme donor or ProLink (PK) (i.e., hGLP1R-PK) was then engineered into HEK293/b-arrestinl-EA cells and HEK293/b-arrestin2-EA cells to generate the cell lines referred herein as HEK293/b-arrestin1/hGLP1R and HEK293/b-arrestin2/hGLP1R. Recruitment of b-arrestin 1 or b-arrestin 2 to GLP1R in these reporter cell lines brings both b-gal fragments (EA and PK) into close proximity, leading to reconstitution of a fully functional enzyme capable of hydrolyzing a substrate and generating a chemiluminescent signal.
as §1
For b-arrestin 1 and b-arrestin 2 recruitment assays, after a 1-hour incubation at 37° C., PathHunter Detection Reagent (Eurofins DiscoverX, #93-0001) was added to the wells followed by a 1-hour incubation at room temperature. RLUs were measured on EnVision Plate Reader (Perkin Elmer).
as §2

[4] = pH stability (special liability); type: physicochemical
[5] = Metabolite study in human liver S9 (high resolution LC-MS); type: in vitro ADME
Protocol: Metabolite studies were conducted using Q-M3190 and Q-6009 (Q is Glutamine).
Liver S9 is the supernatant obtained by grinding and centrifuging the liver cells. The enzymes content is lower compared to Hepatocytes. It mainly contains CYP enzymes and some biphasic enzymes (but no biphasic coenzyme), so additional coenzyme (NADPH and UDPGA, etc.) is needed to mediate the biphasic reaction.

SMILES	Emax (GLP-1R [1])	CRE-dependent luciferase reporter activity (in words) (GLP-1R [1]; HEK293/CRE-Luc/hGLP1R cells)	solubility (physchem)	GLP-1R CAMP Max (GLP-1R [2]; Table 10)	EC50 (GLP-1R [2]; Table 10, read-out: GLP-1R CAMP EC50)	b-arrestin 2 recruitment (in words) (GLP-1R [3]; HEK293/b-arrestin2/hGLP1R cells)	Special liability [4]	amount remaining / detected after incubation of Q-M6009 ([5]; Q-M6009 in human liver S9, text)	Relative Abundance (% Total) ([5]; metabolites of Q-M3190 at 4 hours in human liver S9)	Relative Abundance (% Total) ([5]; metabolites of Q-M6009 at 4 hours in human liver S9)	EC50 (GLP-1R [2])	EC50 (GLP-1R [3])	Emax (GLP-1R [3]; HEK293, read-out: Emax (% GLP-1), b-Arrestin2 recruitment, HEK293/b-arrestin2/hGLP1R)	Emax (GLP-1R [3]; read-out: b-arrestin 2 recruitment Emax relative to GLP-1, HEK293/b-arrestin2/hGLP1R cells)	solubility (Solubility in water)
CCc1cc(OCCCCn2cc(COCCOCCOCCOCCOCCOCCOCCOCCN)nn2)ccc1-c1ccc(C[C@H](NC(=O)[C@H](CC(=O)O)NC(=O)[C@H](CO)NC(=O)[C@@H](NC(=O)C(C)(Cc2ccccc2F)NC(=O)[C@@H](NC(=O)CNC(=O)[C@H](Cc2nn[nH]n2)NC(=O)C(C)(C)C(=O)NCCc2cnc[nH]2)[C@@H](C)O)[C@@H](C)O)C(=O)N[C@@H](CCCc2cc(C)cc(C)c2)C(=O)O)cc1 (some centres unmarked) [M6009]	92.1%	comparable activities as that of M3190	> 70000 µg/mL and > 30000 µM	139.7%	2.23 nM	comparable activities as that of M3190	stable at pH <3 or pH >11, and unstable at PH <1	93%	2.34 % Total	13.14 % Total					
CCc1cc(OCCCCn2cc(COCCOCCOCCOCCOCCOCCOCCOCCN)nn2)ccc1-c1ccc(C[C@H](NC(=O)[C@H](CC(=O)O)NC(=O)[C@H](CO)NC(=O)[C@@H](NC(=O)C(C)(Cc2ccccc2F)NC(=O)[C@@H](NC(=O)CNC(=O)[C@H](Cc2nnn[nH]2)NC(=O)C(C)(C)C(=O)NCCc2cnc[nH]2)[C@@H](C)O)[C@@H](C)O)C(=O)O)cc1 (some centres unmarked) [M6324]	91.6%			53.33%							882 nM	> 1000 nM	0.7%	0.7%	> 70000 µg/mL and > 30000 µM
